In patent US20220251081A1, “HETEROBICYCLIC INHIBITORS OF MAT2A AND METHODS OF USE FOR TREATING CANCER” (priority 2019, published 2022):

Columns and labels:
[1] = test system: HCT116 MTAP +/+; assay: Inhibition of cellular proliferation, 4 days, Cell Titer Glo, HCT116 MTAP+/+; assay type: cell-based; conditions: Homo sapiens, HCT-116, 96 h, IC50 score, read-out: 4 Day Relative Growth Inhibition (MTAP +/+)
Protocol: (§1) Assay for Inhibition of Cellular Proliferation
(§2) Test compound impact on cancer cell growth was assessed by treating cancer cells with compound for 4 days and then measuring proliferation using an ATP-based cell proliferation readout (Cell Titer Glo, Promega Corporation).
(§3) In a typical assay an isogenic pair of HCT116 human colon carcinoma cell lines which vary only in MTAP deletion status (HCT116 MTAP +/+ and HCT116 MTAP−/−) were plated in 96-well dishes at appropriate cell density. Following 24 hours, cells were then treated with the candidate MAT2A inhibitor. Prior to addition to cells, the compound was first serially diluted in 100% DMSO, typically as a 3-fold serial dilution starting at 500× top dose with 10 dose points including DMSO only control. Compound was then transferred to a working stock plate in cell culture media by adding 5 μL of compound in DMSO to 495 μL of cell culture media. This working stock was then added to cells via a further 5-fold dilution, by adding 25 μL of working stock to 100 μL of cells in culture media. Following compound addition, cells were incubated at 37° C./5% C02 for 4 days.
(§4) To measure inhibition of cellular proliferation, cells were allowed to equilibrate to room temperature for 30 minutes, and were then treated with 125 μL of Cell Titer Glo reagent. The plate was then covered with aluminum foil and shaken for 15 minutes to ensure complete mixing and full cell lysis. Luminescent signal was then measured using a plate-based luminometer Veritas version 1.9.2 using ATP standard curve to confirm assay reproducibility from run to run. This luminescence measure was converted to a proliferation index by subtracting from each data point the ATP luminescence signal measured from a bank (no cells) well and dividing by the ATP luminescence signal measured in 0.2% DMSO control well adjusted for signal in blank well. Compound activity was then represented as a percentage change in proliferation relative to a within-plate DMSO control against log 10 of compound concentration in molar (M) units.

[2] = target: T1, MAT2A homodimer (Homo sapiens, UniProt P31153); assay: Biochemical assay: inhibition of recombinant MAT2A homodimer (phosphate release, PiColorLock Gold); conditions: MAT2A IC50 score; read-out: Enzyme Inhibition
T1 construct: inferred from Ni sepharose purification and imidazole elution; made in house; host or cells: Sf9 insect cells, recombinant baculovirus (Bac to Bac, pFASTBAC1 vector)
Protocol: Mat2A protein was expressed by recombinant baculovirus in SF9 infected cells using the Bac to Bac system cloned into the pFASTBAC1 vector (Invitrogen, Carlsbad, Calif.). Recombinant MAT2A was isolated from the cell lysate of 150 g of infected cells using HP Ni sepharose column chromatography. Recombinant MAT2A homodimer was eluted with 250 and 500 mM imidazole, and fractions containing MAT2A were identified by sodium dodecyl sulfate polyacrylamide gel electrophoresis and pooled.
For determination of the inhibitory potency of compounds against the MAT2A homodimer, protein was diluted to 4 μg/mL in assay buffer (50 mM Tris, pH 8.0, 50 mM KCl, 15 mM MgCl2, 0.3 mM EDTA, 0.005% [w/v] bovine serum albumin [BSA]). Test compound was prepared in 100% dimethyl sulfoxide (DMSO) at 50× the desired final concentration. A 1 μL volume of compound dilution was added to 40 μL of enzyme dilution and the mixture was allowed to equilibrate for 60 minutes at 25° C. The enzymatic assay was initiated by the addition of 10 μL of substrate mix (500 μM ATP, pH 7.0, 40 μM L-methionine in 1× assay buffer), and the mixture was incubated for a further 60 minutes at 25° C. The reaction was halted and the liberated phosphate released by the enzyme in stoichiometric amounts by the production of S-adenosyl methionine (SAM) was measured using the PiColorLock Gold kit (Innova Biosciences, UK). Absolute product amounts were determined by comparison to a standard curve of potassium phosphate buffer, pH 8.0.

[3] = test system: HCT116 MTAP-/-; assay: Inhibition of cellular proliferation, 4 days, Cell Titer Glo, HCT116 MTAP-/-; assay type: cell-based; conditions: Homo sapiens, HCT-116, 96 h, IC50 score, read-out: 4 Day Relative Growth Inhibition (MTAP −/−)
Protocol: as §1, §2, §3, §4

[4] = test system: SAM in HCT116 human colon carcinoma cell line with deleted MTAP gene; assay: Cellular assay of target engagement (SAM): SAM level by LC-MS/MS after 72 hrs; assay type: cell-based; conditions: HCT-116, IC50 score, read-out: Cell 72 h SAM Inhibition (MTAP −/−)
Protocol: Cellular Assay of Target Engagement (SAM)
Measurement of MAT2A activity in cells was made by direct quantitation of the abundance of the product of its enzymatic activity, SAM. Cancer cells were treated with candidate MAT2A inhibitors for a suitable incubation period, and the cells were then lysed using a reagent which quenched any further enzyme activity. Soluble metabolites including SAM were collected and SAM itself was directly measured from the lysate using quantitative LC-MS/MS.
A typical assay was performed using an HCT116 human colon carcinoma cell line which was genetically engineered to delete the MTAP gene (commercially available from Horizon Discovery). This cell line was utilized because it was determined that loss of the MTAP gene predicts sensitivity to MAT2A inhibitors. Cells were plated in 96-well dishes at appropriate cell density. Following 24 hours, cells were then treated with the candidate MAT2A inhibitor. Prior to addition to cells, the compound was first serially diluted in 100% DMSO, typically as a 3-fold serial dilution starting at 500× top dose with 10 dose points including DMSO only control. Compound was then transferred to a working stock plate in cell culture media by adding 5 μL of compound in DMSO to 495 μL of cell culture media. This working stock was then added to cells via a further 5-fold dilution, by adding 25 μL of working stock to 100 μL of cells in culture media. Following compound addition, cells were incubated at 37° C./5% CO2 for 72 hrs.
To quantitate SAM levels following compound treatment, cells were gently washed once in ammonium carbonate buffer (75 mM at pH 7.4), placed on dry ice, and lysed with metabolite extraction buffer (80% cold methanol and 20% water (v/v) with acetic acid at 1M final concentration with 200 ng/mL deuterated d3-SAM as internal control). Following centrifugation at 4° C. at 3,200 rpm for 30 minutes, the supernatant was collected and stored at −80° C. until analysis by Liquid Chromatography with tandem Mass Spectrometry (LC-MS/MS). LC-MS/MS analysis was performed using an API6500 Mass Spectrometer (Sciex, Framingham, Mass., USA) operating in positive ion spray mode and equipped with a Waters UPLC Acquity (Waters, Milford, Mass., USA) BEH Amide column. Multiple Reaction Monitoring data was acquired for SAM and the d3-SAM standard, using a mass transition pair at m/z 399.2→250.1 and 402.2→250.1, respectively. In a typical LC-MS/MS analysis, the initial flow rate was 0.5 ml/min of 25% mobile phase A (acetonitrile and water at 5:95 (v/v) with 1% formic acid and 10 mM ammonium acetate) and 75% mobile phase B (acetonitrile and water at 95:5 (v/v) with 1% formic acid and 10 mM ammonium acetate), 0.2-0.5 minutes with 75%-35% mobile phase B, 25%-65% mobile phase A, at 0.5 min 65% mobile phase A and 35% mobile phase B, 1.0-1.1 minutes with 35%-75% mobile phase B, 65%-25% mobile phase A, at 1.1 min 25% mobile phase A and 75% mobile phase B with a total run time of 1.5 minutes.

T1 sequence (P31153 whole entry): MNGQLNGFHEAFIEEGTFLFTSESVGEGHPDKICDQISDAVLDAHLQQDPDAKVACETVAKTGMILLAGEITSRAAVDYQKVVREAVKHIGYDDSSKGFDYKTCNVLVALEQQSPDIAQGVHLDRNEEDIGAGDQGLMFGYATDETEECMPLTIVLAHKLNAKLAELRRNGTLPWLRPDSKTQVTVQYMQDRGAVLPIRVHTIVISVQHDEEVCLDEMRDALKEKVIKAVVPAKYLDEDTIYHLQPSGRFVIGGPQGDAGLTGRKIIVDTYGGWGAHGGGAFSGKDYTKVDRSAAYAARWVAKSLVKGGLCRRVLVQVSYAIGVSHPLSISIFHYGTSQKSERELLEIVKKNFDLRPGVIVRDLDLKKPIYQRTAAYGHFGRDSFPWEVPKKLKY

Row | SMILES | IC50 [1] [nM] | IC50 [2] [nM] | IC50 [3] [nM] | IC50 [4] [nM]
1 | COc1ccc(-n2c(=O)c(-c3ccc4ncncc4c3)cc3cnc(NCC(F)(F)F)nc32)cc1 [Example 176] | 100 to 1000 | < 100 | < 100 | < 100
2 | CNc1ccc(-n2c(=O)c(-c3ccc4nn(C)cc4c3)cc3ccc(OCC(F)F)nc32)cn1 [Example 147] | 100 to 1000 | < 100 | < 100 | < 100
3 | CCOc1ccc2cc(-c3ccc4ncn(C)c4c3)c(=O)n(-c3ccc(Cl)cc3)c2n1 [Example 195] | 100 to 1000 | < 100 | < 100 | < 100
4 | CCOc1cnc2cc(-c3ccc4nn(C)cc4c3)c(=O)n(-c3ccc(OC(F)F)cc3)c2n1 [Example 231] | 100 to 1000 | < 100 | < 100 | < 100
5 | [2H]C([2H])([2H])Oc1ccc(-n2c(=O)c(-c3ccc4nn(C)cc4c3)cc3ccc(OCC(F)(F)F)nc32)cc1 [Example 316] | ≥ 1000 | < 100 | < 100 | < 100
6 | COc1ccc(-c2cc3ccc(NCC(F)(F)F)nc3n(-c3ccc(OC)cc3)c2=O)cc1 [Example 131] | ≥ 1000 | < 100 | < 100 | < 100
7 | CCOc1ccc2cc(-c3ccc4nncn4c3)c(=O)n(-c3ccc(OC(F)F)cc3)c2n1 [Example 216] | ≥ 1000 | < 100 | < 100 | < 100
8 | CCOc1ccc2cc(-c3ccc(OC)cc3)c(=O)n(-c3ccc(OC(F)F)cc3)c2n1 [Example 139] | ≥ 1000 | < 100 | 100 to 1000 | < 100
9 | CCOc1cnc2cc(-c3ccc4nn(C)cc4c3)c(=O)n(-c3ccc(Cl)cc3)c2n1 [Example 229, 5-(4-chlorophenyl)-3-ethoxy-7-(2-methyl-2H-indazol-5-yl)pyrido[2,3-b]pyrazin-6(5H)-one] | ≥ 1000 | < 100 | < 100 | < 100
10 | CCOc1ccc2cc(-c3ccc4nnn(C)c4c3)c(=O)n(-c3ccc(Cl)cc3)c2n1 [Example 200] | 100 to 1000 | < 100 | < 100 | < 100
11 | CCOc1ccc2cc(-c3ccc(OC)cc3)c(=O)n(-c3ccc(C4CC4)cc3)c2n1 [Example 163] | ≥ 1000 | < 100 | 100 to 1000 | 100 to 1000
12 | COc1ccc(-n2c(=O)c(-c3cnn(C)c3)cc3cnc(NCC(F)(F)F)nc32)cc1 [Example 187] | ≥ 1000 | < 100 | 100 to 1000 | 100 to 1000
13 | COc1ccc(-n2c(=O)c(-c3ccc4c(c3)CCO4)cc3cnc(NCC(F)(F)F)nc32)cc1 [Example 173] | ≥ 1000 | < 100 | < 100 | < 100
14 | CCOc1ccc2cc(-c3ccc4nn(C)cc4c3)c(=O)n(-c3ccc(OC(F)F)cc3)c2n1 [Example 140] | 100 to 1000 | < 100 | < 100 | < 100
15 | CCOc1ccc2cc(-c3ccc4nn(C)cc4c3)c(=O)n(-c3ccc4scnc4c3)c2n1 [Example 150] | ≥ 1000 | < 100 | < 100 | < 100
16 | CCNc1ccc2nc(-c3ccc4nn(C)cc4c3)c(=O)n(-c3ccc(OC(F)F)cc3)c2n1 [Example 338] | < 100 | < 100 | < 100 | < 100
17 | CCOc1ccc2nc(-c3ccc4nn(C)cc4c3)c(=O)n(-c3ccc(C4CC4)cc3)c2n1 [Example 330] | ≥ 1000 | < 100 | < 100 | < 100
18 | CNc1ccc(-n2c(=O)c(-c3ccc4nn(C)cc4c3)cc3ccc(OCC(F)(F)F)nc32)cn1 [Example 167] | ≥ 1000 | < 100 | < 100 | < 100
19 | Cn1cc2cc(-c3cc4ccc(OCC(F)F)nc4n(-c4ccc(C5CC5)nc4)c3=O)ccc2n1 [Example 168] | ≥ 1000 | < 100 | < 100 | < 100
20 | CCOc1ccc2cc(-c3ccc4nn(CC(C)(C)O)cc4c3)c(=O)n(-c3ccc(Cl)cc3)c2n1 [Example 196] | 100 to 1000 | < 100 | 100 to 1000 | < 100
